The subject of data set [1] is HeLa. Briefly: Concentration of compound that decreased the percentage of formazan production in treated HRV-14 virus infected cells to that produced in uninfected cells. The format is functional. The following applies: Homo sapiens.
Data set [2] concerns HeLa. The data set is described as follows: Formazan production in HRV-14 virus infected cells. In kind it is functional, cell-based. The settings on record: Homo sapiens.
Data set [3] concerns the target T1, Human rhinovirus A protease (Human rhinovirus sp.) (UniProt Q4U254).
T1 sequence (whole entry): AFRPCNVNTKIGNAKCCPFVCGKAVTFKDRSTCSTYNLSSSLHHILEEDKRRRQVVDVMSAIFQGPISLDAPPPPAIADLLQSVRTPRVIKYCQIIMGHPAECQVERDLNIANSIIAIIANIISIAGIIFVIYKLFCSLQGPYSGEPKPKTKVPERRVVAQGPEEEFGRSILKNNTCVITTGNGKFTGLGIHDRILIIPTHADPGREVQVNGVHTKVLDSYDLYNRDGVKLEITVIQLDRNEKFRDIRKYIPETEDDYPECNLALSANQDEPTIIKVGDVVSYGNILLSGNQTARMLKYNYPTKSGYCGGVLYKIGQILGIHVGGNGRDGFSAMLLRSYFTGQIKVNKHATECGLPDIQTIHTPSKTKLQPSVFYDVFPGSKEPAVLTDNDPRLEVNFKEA
Briefly: Catalytic rate constant (Kobs/[I]) evaluated against human rhinovirus (HRV) serotype 14 3C Protease (3CP). The following applies: Human rhinovirus B (HRV-14).

Data set [4] is described as follows: Half-life in rat plasma. The format is ADME, organism-based.

In the data set on HeLa [1], `CON(C)C(=O)/C=C/[C@H](CCC(N)=O)NC(=O)[C@H](Cc1ccccc1)NC(=O)[C@H](CC(C)C)NC(=O)OCc1ccccc1` showed a CC50 of over 100 µM. In addition, the midpoint of the response with HeLa [2], the EC50, lay at 4 µM. This molecule also came in with a K obs / 1 in data set [3] of 5900 M⁻¹ s⁻¹. Moreover, in data set [4], the half-life came out at 12 min.
Molecule `CC(C)C[C@H](NC(=O)OCc1ccccc1)C(=O)N[C@@H](Cc1ccccc1)C(=O)N[C@H](/C=C/C(=O)OC1CCCCC1)CCC(N)=O` had a CC50 in the data set on HeLa [1] of over 320 µM. Besides, the concentration giving a half-maximal response (EC50) in the data set on HeLa [2] amounted to 3.6 µM. This molecule also had a K obs / 1 in data set [3] of 3700 M⁻¹ s⁻¹. The molecule also showed a half-life in data set [4] of 4 min.
In the same order, the values of `CC(C)C[C@H](NC(=O)OCc1ccccc1)C(=O)N[C@@H](Cc1ccccc1)C(=O)N[C@H](/C=C/C(=O)N1CCc2ccccc21)CCC(N)=O` are over 320 µM, 16 µM, 6500 M⁻¹ s⁻¹ and over 80 min.
As for `CC(C)C[C@H](NC(=O)OCc1ccccc1)C(=O)N[C@@H](Cc1ccccc1)C(=O)N[C@H](/C=C/C(=O)n1cccc1)CCC(N)=O`, in the data set with HeLa [1], the midpoint of cytotoxicity, the CC50, lay at 6.3 µM. The same molecule registered a concentration for a half-maximal effect (EC50) in the data set with HeLa [2] of 1.4 µM. For the same molecule, the K obs / 1 in data set [3] is 400000 M⁻¹ s⁻¹.
Taken in the same sequence, the figures for `CC(C)C[C@H](NC(=O)OCc1ccccc1)C(=O)N[C@@H](Cc1ccccc1)C(=O)N[C@H](/C=C/C(=O)N1CCCO1)CCC(N)=O` were over 320 µM, 45 µM and 14000 M⁻¹ s⁻¹.
Molecule `CC(C)C[C@H](NC(=O)OCc1ccccc1)C(=O)N[C@@H](Cc1ccccc1)C(=O)N[C@H](/C=C1\CCOC1=O)CCC(N)=O` had a 50% cytotoxic concentration (CC50) in the data set on HeLa [1] of over 320 µM. In the data set on HeLa [2], this molecule gave an EC50 of 5.2 µM. The molecule also returned a K obs / 1 in data set [3] of 10900 M⁻¹ s⁻¹. In data set [4], this molecule showed a half-life of over 240 min.
In turn, `CC(C)C[C@H](NC(=O)OCc1ccccc1)C(=O)N[C@@H](Cc1ccccc1)C(=O)N[C@H](/C=C/c1ccno1)CCC(N)=O` yielded a CC50 in the data set on HeLa [1] of over 320 µM. The molecule also gave an EC50 in the data set on HeLa [2] of over 320 µM. This molecule also registered a K obs / 1 in data set [3] of 600 M⁻¹ s⁻¹.
On to `CC(C)C[C@H](NC(=O)OCc1ccccc1)C(=O)N[C@@H](Cc1ccccc1)C(=O)N[C@H](/C=C/C(=O)N1CCc2cc(Br)ccc21)CCC(N)=O`, for which the CC50 in the data set on HeLa [1] was over 320 µM. Besides, the concentration giving a half-maximal response (EC50) in the data set on HeLa [2] is 47 µM. Besides, the K obs / 1 in data set [3] turned out to be 5800 M⁻¹ s⁻¹.
In the same order, the values of `CC(C)C[C@H](NC(=O)OCc1ccccc1)C(=O)N[C@@H](Cc1ccccc1)C(=O)N[C@H](/C=C/C(=O)OCc1ccccc1)CCC(N)=O` are over 100 µM, 3.2 µM and 39400 M⁻¹ s⁻¹.
On to `CC(C)C[C@H](NC(=O)OCc1ccccc1)C(=O)N[C@@H](Cc1ccccc1)C(=O)N[C@H](/C=C/C(=O)N(C)C)CCC(N)=O`, for which, in the data set with HeLa [1], the CC50 was over 100 µM. For the same molecule, in the data set on HeLa [2], the concentration for a half-maximal effect (EC50) worked out at 56 µM. In data set [3], this molecule returned a K obs / 1 of 1300 M⁻¹ s⁻¹.
In the same order, the values of `CC(C)C[C@H](NC(=O)OCc1ccccc1)C(=O)N[C@@H](Cc1ccccc1)C(=O)N[C@H](/C=C/C(=O)N1CCC(O)C1)CCC(N)=O` (some centres not stated) are over 320 µM, over 320 µM and 1200 M⁻¹ s⁻¹.
Taken in the same sequence, the figures for `COc1ccc(C(=O)/C=C/[C@H](CCC(N)=O)NC(=O)[C@H](Cc2ccccc2)NC(=O)[C@H](CC(C)C)NC(=O)OCc2ccccc2)cc1` were 100 µM, 22 µM and 150000 M⁻¹ s⁻¹.
The molecule `CCOC(=O)/C(C)=C/[C@H](CCC(N)=O)NC(=O)[C@H](Cc1ccccc1)NC(=O)[C@H](CC(C)C)NC(=O)OCc1ccccc1` registered a 50% cytotoxic concentration (CC50) with HeLa [1] of over 320 µM. Besides, the EC50 in the data set on HeLa [2] stood at 3 µM. The K obs / 1 in data set [3] was determined as 7300 M⁻¹ s⁻¹. Moreover, the half-life in data set [4] came out at 20 min.
In the data set on HeLa [1], `CC(C)C[C@H](NC(=O)OCc1ccccc1)C(=O)N[C@@H](Cc1ccccc1)C(=O)N[C@H](/C=C/C(=O)Nc1ccccc1)CCC(N)=O` registered a CC50 of over 320 µM. For the same molecule, in the data set with HeLa [2], the EC50 was over 320 µM. The same molecule came in with a K obs / 1 in data set [3] of 200 M⁻¹ s⁻¹.

What is called CC50 is the concentration at which the toxic effect on the cells reaches its halfway point. Low values mean harm at low concentration, high ones better tolerance by the cells. As a reminder, the EC50 is the concentration giving half of the maximal effect. Low values mean higher potency in that assay, high ones lower potency in that assay. What is called half-life is the time in which the quantity being followed falls by half.

Source of the values: ChEMBL document CHEMBL1131036, “Structure-based design, synthesis, and biological evaluation of irreversible human rhinovirus 3C protease inhibitors. 1. Michael acceptor structure-activity studies” (J Med Chem, 1998).
